Source: patent US11168364B2, “Method and system for sequencing nucleic acids” (priority 2016, dated 2021)

Target: T1, Bsu DNA polymerase large fragment / primed template nucleic acid (Bacillus subtilis, UniProt O34996)
T1 construct: 350 U/ml Bsu DNA polymerase large fragment
T1 sequence (O34996 297-880 limits assumed): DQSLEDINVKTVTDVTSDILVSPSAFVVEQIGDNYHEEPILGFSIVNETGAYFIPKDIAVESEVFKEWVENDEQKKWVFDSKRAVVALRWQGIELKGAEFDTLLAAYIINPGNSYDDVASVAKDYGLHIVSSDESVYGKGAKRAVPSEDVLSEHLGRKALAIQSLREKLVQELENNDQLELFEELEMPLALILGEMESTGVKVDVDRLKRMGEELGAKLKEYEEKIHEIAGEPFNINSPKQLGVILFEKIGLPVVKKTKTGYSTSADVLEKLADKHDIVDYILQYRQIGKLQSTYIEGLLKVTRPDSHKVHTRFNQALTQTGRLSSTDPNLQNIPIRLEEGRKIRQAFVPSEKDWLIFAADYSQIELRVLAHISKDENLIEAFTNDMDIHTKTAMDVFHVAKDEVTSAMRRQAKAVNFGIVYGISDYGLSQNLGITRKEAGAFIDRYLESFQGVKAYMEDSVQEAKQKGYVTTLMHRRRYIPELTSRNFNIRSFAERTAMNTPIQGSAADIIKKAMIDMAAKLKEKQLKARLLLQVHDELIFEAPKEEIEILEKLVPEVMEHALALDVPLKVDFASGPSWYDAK
Assay: Biolayer interferometry of polymerase binding to immobilized primed template with cognate or non-cognate nucleotide, salt titration (Example 19)
Conditions: for Ternary Complex Signal (Δλ, nm): dCTP (cognate); for Binary Complex Signal (Δλ, nm): dGTP (non-cognate)
Excerpt: A FORTEBIO® (Menlo Park, Calif.) OCTET® instrument employing biolayer interferometry to measure binding reactions at the surface of a fiber optic tip was used in a multiwell plate format to investigate differential stability of binary and ternary complexes. Template strands biotinylated at their 5′-ends were used to immobilize the primed template nucleic acid onto fiber optic tips functionalized with streptavidin (SA) according to standard procedures. […] Tips were first equilibrated in a Tris-buffered solution containing 30 mM Tris-HCl (pH 8.0), and 0.1 mM EDTA before commencing the cycling protocol. Independent binding reactions for the two test nucleotides (i.e., cognate and non-cognate nucleotides) were carried out in the presence of concentrations of NaCl, KCl, or potassium glutamate that varied from 50 mM to 500 mM. […] In all instances, the reaction mixture used during the examination step contained Tris-HCl (pH 8.0), 0.01% Tween-20, 100 μg/ml BSA, 2 mM NiSO4, 350 U/ml Bsu DNA polymerase large fragment; and one of the nucleotides at a concentration of 100 μM (dCTP was used as a cognate nucleotide, and dGTP was used as a non-cognate nucleotide). Following each examination step, tips were exposed to a buffer containing 30 mM Tris-HCl (pH 8.0), 500 mM KCl, 2 mM EDTA and 0.05% Tween-20 for 20 seconds to strip enzyme complexes from the primed template nucleic acid. The stripping step was followed by a 15 second exposure to examination buffer without enzyme, dNTP or divalent cations to regenerate tips for the next cycle of examination. When using a single contacting step to effect binding of polymerase and nucleotide to the primed template nucleic acid, the binding step was 45 seconds long, with binding interactions being monitored continuously. This was accomplished by contacting the primed template nucleic acid with a single solution that included the polymerase and test nucleotide. Results from interferometry monitoring were analyzed to identify formation of ternary complexes (i.e., identifying cognate nucleotide) or binary complexes (i.e., identifying non-cognate nucleotide).

[1] = KCl 50 mM + fixed 160 mM potassium glutamate
[2] = KCl 75 mM + fixed 160 mM potassium glutamate
[3] = KCl 100 mM + fixed 160 mM potassium glutamate
[4] = KCl 125 mM + fixed 160 mM potassium glutamate
[5] = KCl 150 mM + fixed 160 mM potassium glutamate
[6] = KCl 175 mM + fixed 160 mM potassium glutamate
[7] = KCl 200 mM + fixed 160 mM potassium glutamate
[8] = KCl 225 mM + fixed 160 mM potassium glutamate
[9] = KCl 250 mM + fixed 160 mM potassium glutamate
[10] = KCl 275 mM + fixed 160 mM potassium glutamate
[11] = KCl 300 mM + fixed 160 mM potassium glutamate
[12] = KCl 325 mM + fixed 160 mM potassium glutamate
[13] = KCl 350 mM + fixed 160 mM potassium glutamate
[14] = KCl 375 mM + fixed 160 mM potassium glutamate
[15] = KCl 400 mM + fixed 160 mM potassium glutamate
[16] = KCl 425 mM + fixed 160 mM potassium glutamate
[17] = KCl 450 mM + fixed 160 mM potassium glutamate
[18] = KCl 475 mM + fixed 160 mM potassium glutamate
[19] = KCl 500 mM + fixed 160 mM potassium glutamate

With `[Cl-].[K+]` [KCl] the “Fold Enhancement (Ternary/Binary)” value (KCl 50 mM) was 1.03, the “Fold Enhancement (Ternary/Binary)” value [1] was 1.24 and the “Ternary Complex Signal (Δλ, nm)” value [1] was 1.57 nm. For the same molecule, the “Binary Complex Signal (Δλ, nm)” value [1] was 1.27 nm, the “Ternary Complex Signal (Δλ, nm)” value (KCl 50 mM) was 2.98 nm and the “Binary Complex Signal (Δλ, nm)” value (KCl 50 mM) was 2.90 nm. The “Fold Enhancement (Ternary/Binary)” value (KCl 75 mM) was 0.97, the “Fold Enhancement (Ternary/Binary)” value [2] was 1.41 and the “Ternary Complex Signal (Δλ, nm)” value [2] was 1.49 nm. The “Binary Complex Signal (Δλ, nm)” value [2] was 1.06 nm, the “Ternary Complex Signal (Δλ, nm)” value (KCl 75 mM) was 2.59 nm and the “Binary Complex Signal (Δλ, nm)” value (KCl 75 mM) was 2.68 nm. The “Fold Enhancement (Ternary/Binary)” value (KCl 100 mM) was 1.00, the “Fold Enhancement (Ternary/Binary)” value [3] was 1.71 and the “Ternary Complex Signal (Δλ, nm)” value [3] was 1.52 nm. For the same molecule, the “Binary Complex Signal (Δλ, nm)” value [3] was 0.89 nm, the “Ternary Complex Signal (Δλ, nm)” value (KCl 100 mM) was 2.29 nm and the “Binary Complex Signal (Δλ, nm)” value (KCl 100 mM) was 2.29 nm. The “Fold Enhancement (Ternary/Binary)” value (KCl 125 mM) was 0.98, the “Fold Enhancement (Ternary/Binary)” value [4] was 2.05 and the “Ternary Complex Signal (Δλ, nm)” value [4] was 1.44 nm. The “Binary Complex Signal (Δλ, nm)” value [4] was 0.70 nm, the “Ternary Complex Signal (Δλ, nm)” value (KCl 125 mM) was 1.93 nm and the “Binary Complex Signal (Δλ, nm)” value (KCl 125 mM) was 1.98 nm. The “Fold Enhancement (Ternary/Binary)” value (KCl 150 mM) was 1.00, the “Fold Enhancement (Ternary/Binary)” value [5] was 2.46 and the “Ternary Complex Signal (Δλ, nm)” value [5] was 1.40 nm. For the same molecule, the “Binary Complex Signal (Δλ, nm)” value [5] was 0.57 nm, the “Ternary Complex Signal (Δλ, nm)” value (KCl 150 mM) was 1.67 nm and the “Binary Complex Signal (Δλ, nm)” value (KCl 150 mM) was 1.67 nm. For the same molecule, the “Fold Enhancement (Ternary/Binary)” value (KCl 175 mM) was 0.99, the “Fold Enhancement (Ternary/Binary)” value [6] was 3.31 and the “Ternary Complex Signal (Δλ, nm)” value [6] was 1.30 nm. For the same molecule, the “Binary Complex Signal (Δλ, nm)” value [6] was 0.39 nm, the “Ternary Complex Signal (Δλ, nm)” value (KCl 175 mM) was 1.41 nm and the “Binary Complex Signal (Δλ, nm)” value (KCl 175 mM) was 1.43 nm. For the same molecule, the “Fold Enhancement (Ternary/Binary)” value (KCl 200 mM) was 1.08, the “Fold Enhancement (Ternary/Binary)” value [7] was 4.15 and the “Ternary Complex Signal (Δλ, nm)” value [7] was 1.19 nm. The “Binary Complex Signal (Δλ, nm)” value [7] was 0.29 nm, the “Ternary Complex Signal (Δλ, nm)” value (KCl 200 mM) was 1.30 nm and the “Binary Complex Signal (Δλ, nm)” value (KCl 200 mM) was 1.20 nm. The “Fold Enhancement (Ternary/Binary)” value (KCl 225 mM) was 1.17, the “Fold Enhancement (Ternary/Binary)” value [8] was 5.35 and the “Ternary Complex Signal (Δλ, nm)” value [8] was 1.12 nm. The “Binary Complex Signal (Δλ, nm)” value [8] was 0.21 nm, the “Ternary Complex Signal (Δλ, nm)” value (KCl 225 mM) was 1.20 nm and the “Binary Complex Signal (Δλ, nm)” value (KCl 225 mM) was 1.03 nm. The “Fold Enhancement (Ternary/Binary)” value (KCl 250 mM) was 1.35, the “Fold Enhancement (Ternary/Binary)” value [9] was 7.02 and the “Ternary Complex Signal (Δλ, nm)” value [9] was 0.98 nm. For the same molecule, the “Binary Complex Signal (Δλ, nm)” value [9] was 0.14 nm, the “Ternary Complex Signal (Δλ, nm)” value (KCl 250 mM) was 1.11 nm and the “Binary Complex Signal (Δλ, nm)” value (KCl 250 mM) was 0.82 nm. The “Fold Enhancement (Ternary/Binary)” value (KCl 275 mM) was 1.51, the “Fold Enhancement (Ternary/Binary)” value [10] was 9.07 and the “Ternary Complex Signal (Δλ, nm)” value [10] was 0.88 nm. For the same molecule, the “Binary Complex Signal (Δλ, nm)” value [10] was 0.10 nm, the “Ternary Complex Signal (Δλ, nm)” value (KCl 275 mM) was 1.02 nm and the “Binary Complex Signal (Δλ, nm)” value (KCl 275 mM) was 0.67 nm. The “Fold Enhancement (Ternary/Binary)” value (KCl 300 mM) was 2.04, the “Fold Enhancement (Ternary/Binary)” value [11] was 8.34 and the “Ternary Complex Signal (Δλ, nm)” value [11] was 0.76 nm. The “Binary Complex Signal (Δλ, nm)” value [11] was 0.09 nm, the “Ternary Complex Signal (Δλ, nm)” value (KCl 300 mM) was 0.96 nm and the “Binary Complex Signal (Δλ, nm)” value (KCl 300 mM) was 0.47 nm. The “Fold Enhancement (Ternary/Binary)” value (KCl 325 mM) was 1.97, the “Fold Enhancement (Ternary/Binary)” value [12] was 8.97 and the “Ternary Complex Signal (Δλ, nm)” value [12] was 0.65 nm. For the same molecule, the “Binary Complex Signal (Δλ, nm)” value [12] was 0.07 nm, the “Ternary Complex Signal (Δλ, nm)” value (KCl 325 mM) was 0.71 nm and the “Binary Complex Signal (Δλ, nm)” value (KCl 325 mM) was 0.36 nm. For the same molecule, the “Fold Enhancement (Ternary/Binary)” value (KCl 350 mM) was 3.72, the “Fold Enhancement (Ternary/Binary)” value [13] was 7.94 and the “Ternary Complex Signal (Δλ, nm)” value [13] was 0.54 nm. For the same molecule, the “Binary Complex Signal (Δλ, nm)” value [13] was 0.07 nm, the “Ternary Complex Signal (Δλ, nm)” value (KCl 350 mM) was 0.64 nm and the “Binary Complex Signal (Δλ, nm)” value (KCl 350 mM) was 0.17 nm. For the same molecule, the “Fold Enhancement (Ternary/Binary)” value (KCl 375 mM) was 3.21, the “Fold Enhancement (Ternary/Binary)” value [14] was 12.46 and the “Ternary Complex Signal (Δλ, nm)” value [14] was 0.45 nm. The “Binary Complex Signal (Δλ, nm)” value [14] was 0.04 nm, the “Ternary Complex Signal (Δλ, nm)” value (KCl 375 mM) was 0.49 nm and the “Binary Complex Signal (Δλ, nm)” value (KCl 375 mM) was 0.15 nm. For the same molecule, the “Fold Enhancement (Ternary/Binary)” value (KCl 400 mM) was 9.48, the “Fold Enhancement (Ternary/Binary)” value [15] was 13.75 and the “Ternary Complex Signal (Δλ, nm)” value [15] was 0.37 nm. For the same molecule, the “Binary Complex Signal (Δλ, nm)” value [15] was 0.03 nm, the “Ternary Complex Signal (Δλ, nm)” value (KCl 400 mM) was 0.39 nm and the “Binary Complex Signal (Δλ, nm)” value (KCl 400 mM) was 0.04 nm. The “Fold Enhancement (Ternary/Binary)” value (KCl 425 mM) was 85.77, the “Fold Enhancement (Ternary/Binary)” value [16] was 13.28 and the “Ternary Complex Signal (Δλ, nm)” value [16] was 0.31 nm. The “Binary Complex Signal (Δλ, nm)” value [16] was 0.02 nm, the “Ternary Complex Signal (Δλ, nm)” value (KCl 425 mM) was 0.28 nm and the “Binary Complex Signal (Δλ, nm)” value (KCl 425 mM) was 0.00 nm. For the same molecule, the “Fold Enhancement (Ternary/Binary)” value (KCl 450 mM) was 16.47, the “Fold Enhancement (Ternary/Binary)” value [17] was 7.24 and the “Ternary Complex Signal (Δλ, nm)” value [17] was 0.25 nm. For the same molecule, the “Binary Complex Signal (Δλ, nm)” value [17] was 0.03 nm, the “Ternary Complex Signal (Δλ, nm)” value (KCl 450 mM) was 0.19 nm and the “Binary Complex Signal (Δλ, nm)” value (KCl 450 mM) was 0.01 nm. For the same molecule, the “Fold Enhancement (Ternary/Binary)” value (KCl 475 mM) was 4.89, the “Fold Enhancement (Ternary/Binary)” value [18] was 4.54 and the “Ternary Complex Signal (Δλ, nm)” value [18] was 0.22 nm. The “Binary Complex Signal (Δλ, nm)” value [18] was 0.05 nm, the “Ternary Complex Signal (Δλ, nm)” value (KCl 475 mM) was 0.14 nm and the “Binary Complex Signal (Δλ, nm)” value (KCl 475 mM) was 0.03 nm. For the same molecule, the “Fold Enhancement (Ternary/Binary)” value (KCl 500 mM) was 2.69, the “Fold Enhancement (Ternary/Binary)” value [19] was 2.97 and the “Ternary Complex Signal (Δλ, nm)” value [19] was 0.21 nm. For the same molecule, the “Binary Complex Signal (Δλ, nm)” value [19] was 0.07 nm, the “Ternary Complex Signal (Δλ, nm)” value (KCl 500 mM) was 0.09 nm and the “Binary Complex Signal (Δλ, nm)” value (KCl 500 mM) was 0.04 nm. The “salt concentration of maximum signal ratios for ternary over binary complexes” value (no glutamate salt) was “about 450 mM”.
